Some test systems named below: A549 NSCLC; HOP-62 NSCLC; HT29 colon; IGROV1 ovarian; MOLT-4 leukemia; OVCAR-4 ovarian; SF-539 CNS; SNB-75 CNS; SW-620 colon; T-47D breast; SK-MEL-28 melanoma.
What all share (test): NCI anticancer screen, dose series, 48 h

Molecules are shown by their SMILES.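 Values below derive from 48-hour exposures of cells grown in 96-well plates, with endpoints linearly interpolated between the two concentrations bracketing the appropriate inhibition level. GI50 = concentration required for 50% inhibition of growth. TGI: concentration producing complete growth inhibition.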 Starred links: 1 amine or outer side, 2 acyl side, 3 side chain; linkers in the order of their positions; H or OH if unused. Positions of bridges follow the written chain, without caps; N, C: chain ends. Non-standard residues stand in square brackets, D forms with d. Residues, ends and D or L forms follow the SMILES beside them. Chains are numbered I, II in the order given. Actinocin(1to9) = Cc1c2oc3c(C)ccc(C(=O)[*:2])c3nc-2c(C(=O)[*:1])c(N)c1=O; NMeV = CN[CH](C(=O)O)C(C)C; Sar = CNCC(=O)O A value given as a limit tells only on which side of the number the result lay.

As for `O=c1[nH]c(Nc2ccc(Cl)c(C(F)(F)F)c2)nc2nc[nH]c12`, the TGI was > 100 µM with A549 NSCLC; > 100 µM in the assay on HOP-62 NSCLC; > 100 µM in the assay on HT29 colon; > 100 µM in the assay with IGROV1 ovarian; 62.4 µM with MOLT-4 leukemia; > 100 µM in the assay on OVCAR-4 ovarian. Further, the TGI in the assay with SF-539 CNS, with SNB-75 CNS, with SW-620 colon and in the assay on T-47D breast was > 100 µM in each case.

With `O=C(O[C@@H](/C=C/c1ccccc1)P1(=O)N(Cc2ccccc2)[C@H]2CCCC[C@@H]2N1Cc1ccccc1)c1ccccc1`, the TGI with A549 NSCLC was > 100 µM; in the assay with HOP-62 NSCLC it was 10.8 µM; in the assay on HT29 colon it was > 100 µM; with IGROV1 ovarian, > 100 µM; with OVCAR-4 ovarian it was > 100 µM; in the assay with SF-539 CNS it was 21.3 µM. The TGI in the assay on SK-MEL-28 melanoma is > 100 µM; in the assay with SNB-75 CNS it was > 100 µM; in the assay on SW-620 colon, > 100 µM; in the assay on T-47D breast it was 47.2 µM.

Regarding `COc1ccc(C2NC(=S)Nc3c2c(=O)oc2c3ccc3ccccc32)cc1` (centres undefined), the TGI in the assay with A549 NSCLC, with HOP-62 NSCLC, in the assay on HT29 colon, in the assay with IGROV1 ovarian, with MOLT-4 leukemia and in the assay with OVCAR-4 ovarian was > 100 µM in each case. The TGI was > 100 µM in the assay with SK-MEL-28 melanoma, 96.4 µM with SNB-75 CNS, > 100 µM with SW-620 colon and > 100 µM in the assay with T-47D breast.

With `COCC1CCCN1c1ccc(C=N/C(C#N)=C(\N)C#N)cc1` (centres undefined), the GI50 was 14 µM in the assay on A549 NSCLC; 43.6 µM in the assay on HOP-62 NSCLC; > 100 µM in the assay with OVCAR-4 ovarian; 40.3 µM with SF-539 CNS; > 100 µM in the assay with SK-MEL-28 melanoma; 23.2 µM in the assay with SNB-75 CNS. For the same compound, the GI50 in the assay on SW-620 colon and in the assay on T-47D breast was > 100 µM throughout. Moreover, the TGI is > 100 µM in the assay with A549 NSCLC; > 100 µM in the assay on HOP-62 NSCLC; > 100 µM in the assay with OVCAR-4 ovarian; > 100 µM in the assay with SF-539 CNS; > 100 µM with SK-MEL-28 melanoma; 58.1 µM in the assay with SNB-75 CNS. Besides, the TGI with SW-620 colon and in the assay with T-47D breast was > 100 µM in each case.

Regarding `Cc1c(N2C(=O)/C(=C/c3ccc(Cl)cc3)N=C2c2ccccc2)c(=O)n(-c2ccccc2)n1C`, the TGI in the assay on A549 NSCLC was 99.4 µM; in the assay with HOP-62 NSCLC, > 100 µM; in the assay with HT29 colon it was 79.8 µM; in the assay with IGROV1 ovarian, 88.5 µM; in the assay with MOLT-4 leukemia it was > 100 µM; in the assay on OVCAR-4 ovarian, > 100 µM. Moreover, the TGI in the assay with SF-539 CNS is 73.6 µM; in the assay with SNB-75 CNS it was 80.3 µM; in the assay on SW-620 colon, > 100 µM; in the assay on T-47D breast it was > 100 µM.

Take `CCOC(=O)C(/C(=N/S(=O)(=O)c1cc(C)c(Cl)cc1[S-])[n+]1ccc(N(C)C)cc1)=C(/O)c1ccc([N+](=O)[O-])cc1`: the TGI with A549 NSCLC is > 100 µM; in the assay on HOP-62 NSCLC, 78.7 µM; with HT29 colon, 55.4 µM; in the assay on IGROV1 ovarian, > 100 µM; in the assay on MOLT-4 leukemia, > 100 µM; in the assay with OVCAR-4 ovarian, 88.6 µM. In addition, the TGI in the assay with SF-539 CNS was 53.9 µM; in the assay with SK-MEL-28 melanoma, 83.5 µM; with T-47D breast, > 100 µM.

Take `N#CC12Cc3cc4c(cc3-c3cccc(c31)CCN2C(=O)c1ccccc1)OCO4` (centres undefined): the TGI in the assay on A549 NSCLC, with HOP-62 NSCLC, in the assay with HT29 colon, in the assay on IGROV1 ovarian, in the assay on MOLT-4 leukemia and in the assay on SF-539 CNS was > 100 µM each time. The TGI with SK-MEL-28 melanoma is > 100 µM; with SNB-75 CNS, 62.8 µM; in the assay with SW-620 colon, > 100 µM.

Turning to `COCCNCc1ccc(-c2cc3nccc(Oc4ccc(NC(=S)NC(=O)Cc5ccc(F)cc5)cc4F)c3s2)nc1`, the GI50 was 1.72 µM in the assay with A549 NSCLC, 1.45 µM with HT29 colon, 0.909 µM in the assay on SF-539 CNS and 2.12 µM in the assay with T-47D breast. Also, the TGI with A549 NSCLC was 3.29 µM; in the assay with HT29 colon it was 3.19 µM; in the assay with SF-539 CNS, 2.41 µM; in the assay with T-47D breast, 5.75 µM.

Consider `CCC(C)C1NC(=O)C(NC(=O)c2c3nc4c(C(=O)NC5C(=O)NC(C(C)CC)C(=O)N6CCCC6C(=O)N(C)CC(=O)N(C)C(C(C)C)C(=O)OC5C)ccc(C)c4oc-3c(C)c(=O)c2N)C(C)OC(=O)C(C(C)C)N(C)C(=O)CN(C)C(=O)C2CCCN2C1=O` (centres undefined) (I: TIP[Sar][NMeV] / II: TIP[Sar][NMeV]; ester I:1-I:C, II:1-II:C; linker I:N-II:N via Actinocin(1to9); configuration not given here), for which the TGI with A549 NSCLC was determined as 10.9 µM; in the assay on HT29 colon, 11.5 µM; in the assay on MOLT-4 leukemia it was 0.0144 µM; in the assay on OVCAR-4 ovarian, 0.273 µM; in the assay with SF-539 CNS it was 0.00698 µM; in the assay with SK-MEL-28 melanoma it was 0.0152 µM. The results for the TGI with SNB-75 CNS, in the assay with SW-620 colon and in the assay with T-47D breast were 0.0329 µM, 0.0776 µM and 0.0122 µM, respectively.

Regarding `O=c1ccc2nc3cc(Br)ccc3sc-2c1`, the TGI in the assay with A549 NSCLC, in the assay with HOP-62 NSCLC, with HT29 colon, in the assay with IGROV1 ovarian, in the assay on MOLT-4 leukemia and in the assay on OVCAR-4 ovarian was > 100 µM in each case. In addition, the TGI with SF-539 CNS, in the assay on SK-MEL-28 melanoma, with SNB-75 CNS and with SW-620 colon was > 100 µM throughout.

`Cn1c(=O)[nH]c2nncnc2c1=O`: the TGI in the assay with A549 NSCLC is > 525 µM; with HOP-62 NSCLC it was 181 µM; in the assay with HT29 colon, > 561 µM; in the assay with IGROV1 ovarian it was 133 µM; in the assay on MOLT-4 leukemia it was > 625 µM; in the assay on OVCAR-4 ovarian, > 319 µM. The TGI is 246 µM in the assay with SF-539 CNS, > 625 µM in the assay on SK-MEL-28 melanoma, 117 µM in the assay with SNB-75 CNS and > 625 µM with SW-620 colon.

As to `C[N+]1(CCC(=O)c2ccco2)CC2CCC(CC2)C1` (centres undefined), the TGI in the assay with A549 NSCLC, in the assay on HT29 colon, in the assay on IGROV1 ovarian, in the assay on MOLT-4 leukemia, in the assay on OVCAR-4 ovarian and with SF-539 CNS was > 100 µM in each case. The TGI in the assay on SK-MEL-28 melanoma, with SNB-75 CNS, in the assay with SW-620 colon and with T-47D breast was > 100 µM throughout.

On to `OC(c1ccccc1)(c1ccccc1)c1nccc2ccccc12`, for which the TGI in the assay with A549 NSCLC is > 100 µM; in the assay with HOP-62 NSCLC, 43.2 µM; in the assay on HT29 colon it was > 100 µM; with IGROV1 ovarian, > 100 µM; in the assay on MOLT-4 leukemia, 59.4 µM; in the assay with OVCAR-4 ovarian, > 100 µM. The TGI in the assay on SK-MEL-28 melanoma and with T-47D breast was > 100 µM in each case.

For the compound `Clc1ccccc1/C=c1\nc(-c2ccccc2)n2c1nc1ccccc12`, the TGI was > 100 µM in the assay with A549 NSCLC; 50.3 µM with HOP-62 NSCLC; > 100 µM in the assay on HT29 colon; > 100 µM in the assay with IGROV1 ovarian; > 100 µM in the assay with MOLT-4 leukemia; > 100 µM in the assay with OVCAR-4 ovarian. Further, the TGI in the assay on SF-539 CNS was 41.9 µM; in the assay with SK-MEL-28 melanoma, > 100 µM; in the assay with SW-620 colon it was > 100 µM; in the assay with T-47D breast, > 100 µM.

With `OCc1cn(C(c2ccccc2)(c2ccccc2)c2ccccc2)cn1`, the TGI with A549 NSCLC, with HOP-62 NSCLC, in the assay on HT29 colon, in the assay with IGROV1 ovarian, in the assay with MOLT-4 leukemia and in the assay with OVCAR-4 ovarian was > 100 µM each time. In addition, the TGI with SK-MEL-28 melanoma was > 100 µM; in the assay with SNB-75 CNS, 68.5 µM; in the assay on SW-620 colon it was > 100 µM; with T-47D breast, > 100 µM.

In the case of `COc1ccc(C(=O)C2=NON3OC23C(=O)c2ccc(OC)cc2)cc1` (centres undefined), the TGI is 48.5 µM with A549 NSCLC; > 100 µM with HOP-62 NSCLC; 52.9 µM in the assay with HT29 colon; 27.3 µM in the assay on IGROV1 ovarian; > 21.9 µM in the assay with MOLT-4 leukemia; 16.2 µM with OVCAR-4 ovarian. In addition, the TGI was 24 µM in the assay on SF-539 CNS, 32.7 µM with SK-MEL-28 melanoma, 43.6 µM in the assay on SNB-75 CNS and 11.4 µM in the assay on SW-620 colon.

Turning to `CC(=O)OC1CC[C@@]2(C)C(=CC[C@@H]3[C@@H]2CC[C@]2(C)Nc4nn(S(C)(=O)=O)cc4C[C@@H]32)C1` (some centres undefined), the TGI is > 100 µM with HOP-62 NSCLC; 25.4 µM with HT29 colon; > 100 µM in the assay on IGROV1 ovarian; 53.9 µM in the assay on MOLT-4 leukemia; > 100 µM in the assay on SK-MEL-28 melanoma; > 100 µM with SNB-75 CNS. The compound also yielded a TGI in the assay on T-47D breast of 54.5 µM.

On to `COc1ccc2nc3c(C(=O)NCCN(C)C)cccc3cc2c1`, for which the TGI in the assay with A549 NSCLC stood at 5.26 µM; in the assay on HOP-62 NSCLC it was 7.71 µM; in the assay on HT29 colon, 6.37 µM; in the assay on IGROV1 ovarian it was 6.77 µM; in the assay on MOLT-4 leukemia, 8.4 µM; in the assay on OVCAR-4 ovarian it was 8.49 µM. Also, the TGI is 7.79 µM in the assay on SF-539 CNS, 8.79 µM in the assay with SK-MEL-28 melanoma, 9 µM in the assay on SNB-75 CNS and 5.1 µM in the assay on SW-620 colon.

Turning to `c1ccc(-c2nnn3c2NC2=C(CCCC2)C3c2ccccc2)cc1` (centres undefined), the TGI in the assay on A549 NSCLC turned out to be 32.8 µM; in the assay with HOP-62 NSCLC it was 39.2 µM; in the assay with HT29 colon, 28.4 µM; with IGROV1 ovarian it was 40.2 µM; in the assay on MOLT-4 leukemia it was 24.7 µM; in the assay on SF-539 CNS, 35.8 µM. The TGI in the assay on SW-620 colon is 28.9 µM; in the assay on T-47D breast, 49.9 µM.
